Laboratory results from patent US20240172747A1, “USE OF SORBIC ACID AND SALTS THEREOF AS A NEMATOCIDE” (GONELLA INVENT SOCIETA' A RESPONSABILITA' LIMITATA […], priority 2021, published 2024).
Several values for one entry are separate records, joined by “and”; a condition that tells them apart may be missing. Identical values can stand only once.

Columns and labels:
[1] = test system: larvae of the genus Meloydogine, Heterodera and Globodera; conditions: laboratory tests
Meloidogyne J2 larvae = assay: Motility/mortality test on Meloidogyne J2 larvae in suspension; assay type: in vivo; conditions: single replicates; for READING % IMMOBILE J2 @ 2 H: 2 h exposure; for % DEAD J2 @ 24 H: 24 h exposure
Description: Extraction of root-knot nematodes taken from soil cultivated with basil (Ocimum basilicum) with strong infestation (J2 larvae) from about 500 cc of soil by means of a wool-paper filter (EPPO Bulletin 13,2013) and concentration in distilled water.
The Tests were established by adding an amount of stock solution to one ml of nematode suspension, so as to obtain the final established concentrations.
Nematodes motility parameters were evaluated after 2 h and after 24 h exposure of the J2 larvae to the nematocidal substance.
In the first test, the count was carried out by microscopic observation of immobile nematodes after 2 hours exposure to the product, to evaluate a possible […] effect of the substance. In the second test, the count was carried out by microscopic observation of the nematodes considered dead with strong signs of tissue degeneration (thickening and blistering in the nematode body accompanied by the final folding of the body at right angle).

M. incognita nematodes = test system: M. incognita nematodes
Text: The trial was followed by a test center (third body) in the Vittoria area (RG) in greenhouses with continuous cycles of courgette (Cucurbita pepo) subjected to strong pressure of M. incognita nematodes. […] First application at day 1 after transplantation (DAT), second application at day 7 DAT, third application at day 21 DAT.
The follow-up was scheduled at day 45 (FIG. 5 and FIG. 6) and day 90 after the first treatment. […] Following this screening trial, new large-scale tests will begin to establish optimal doses, modes and volume of distribution. From Table 3 below, it was possible to evaluate the % of nematode attack with a count of the damage present on the root system (galls).

[2] = test system: Meloidogyne incognita eggs
Description: In order to evaluate the efficacy in containing the root-knot nematode Meloidogyne incognita, several in vitro experimental tests were carried out using a sorbic acid solution containing 1 mg/ml of active substance at 98% purity. The average of the tests is reported.
This test concentration was tested on unsegmented and embryonated eggs of M. incognita.
The tests carried out were developed in vitro using double concave glass lenses, by introducing 2 ml of the test solution containing 1 mg/ml of sorbic acid, or sterile water in the case of the control. The incubation took place at a room temperature of 22° C., in the dark. The population of M. incognita was from plants raised in an open field of tomatoes (Solanum lycopersicum).
Unsegmented and embryonated eggs: the eggs were collected from the ovisacs and placed in a double concave glass lens in the presence of the solution to be tested.
Counts of hatched larvae were carried out for 7 days with daily counting and microscopic observation.

nematodes = conditions: laboratory test in a jar, after application
Text: A dose ranging from 0.0001% to 0.001% is considered a “sub-lethal” or “nematostatic” dose, and therefore is a dose which may not kill the nematode but inhibits its mobility and pest capacity.

insects or mites = conditions: laboratory tests
[3] = OECD Test Guideline 402; cited from earlier work
[4] = OECD Test Guideline 403; cited from earlier work
[5] = 25° C.; cited from earlier work
[6] = TEST 1: Potassium Sorbate (80% purity) 250 μg/ml
[7] = TEST 2: Potassium Sorbate 500 μg/ml
[8] = TEST 3: Potassium Sorbate 1 mg/ml

C/C=C/C=C/C(=O)[O-].C/C=C/C=C/C(=O)[O-].[Ca+2] [Calcium Sorbate, calcium sorbate]
effect on larvae of the genus Meloydogine, on Heterodera and Globodera [1]: had an effect

Abamectin [REFERENCE, reference compound]
READING % IMMOBILE J2 @ 2 H (Meloidogyne J2 larvae; Reference: Abamectin 90 μg/ml): 100% and 99% (2×) and 98% | % DEAD J2 @ 24 H (Meloidogyne J2 larvae; Reference: Abamectin 90 μg/ml): 100% (3×) and 99%

C/C=C/C=C/C(=O)[O-].[Na+] [Sodium Sorbate, sodium sorbate]
effect on larvae of the genus Meloydogine, on Heterodera and Globodera [1]: had an effect

C/C=C/C=C/C(=O)[O-].[K+] [Potassium Sorbate, potassium sorbate]
READING % IMMOBILE J2 @ 2 H (Meloidogyne J2 larvae; [6]): 10% and 5% and 7% and 2% | % DEAD J2 @ 24 H (Meloidogyne J2 larvae; [6]): 15% and 12% and 18% and 10% | READING % IMMOBILE J2 @ 2 H (Meloidogyne J2 larvae; [7]): 40% and 38% and 45% and 43% | % DEAD J2 @ 24 H (Meloidogyne J2 larvae; [7]): 80% and 76% and 75% (2×) | READING % IMMOBILE J2 @ 2 H (Meloidogyne J2 larvae; [8]): 75% (2×) and 78% and 80% | % DEAD J2 @ 24 H (Meloidogyne J2 larvae; [8]): 98% and 99% and 100% and 96% | Average weight of a courgette (M. incognita nematodes; 10 kg/ha): 0.24 kg | Average production of a plant, No. courgettes (M. incognita nematodes; 10 kg/ha, mean of 20 plants): 15.75 | Average production of a plant, Weight in kg (M. incognita nematodes; 10 kg/ha, mean of 20 plants): 3.78 kg | toxicity or damage of the root system (M. incognita nematodes; field application, courgette): without leading to toxicity or damage of the root system | effect on larvae of the genus Meloydogine, on Heterodera and Globodera [1]: had an effect

C/C=C/C=C/C(=O)O [Sorbic Acid, 2,4-hexadienoic acid]
hatched larvae, Day 1 DAT ([2]; 1 mg/ml sorbic acid (98% purity), 22° C., dark, Day 1, average of tests): 0 | hatched larvae, Day 2 DAT ([2]; 1 mg/ml sorbic acid, 22° C., dark, Day 2, average of tests): 0% | hatched larvae, Day 3 DAT ([2]; 1 mg/ml sorbic acid, 22° C., dark, Day 3, average of tests): 0% | hatched larvae, Day 4 DAT ([2]; 1 mg/ml sorbic acid, 22° C., dark, Day 4, average of tests): 0% | hatched larvae, Day 5 DAT ([2]; 1 mg/ml sorbic acid, 22° C., dark, Day 5, average of tests): 0% | hatched larvae, Day 6 DAT ([2]; 1 mg/ml sorbic acid, 22° C., dark, Day 6, average of tests): 1% | hatched larvae, Day 7 DAT ([2]; 1 mg/ml sorbic acid, 22° C., dark, Day 7, average of tests): 3% | efficacy on egg embryogenesis and larvae ([2]; 1 mg/ml sorbic acid, in vitro): allowing the inhibition of egg embryogenesis and excellent action on larvae, both free and included in ovisacs | nematostatic effect: number of immature forms (nematodes): a greater number of immature forms | insecticidal or acaricidal activity (insects or mites): no insecticidal activity (insect kingdom) or acaricidal activity has been found | effect on larvae of the genus Meloydogine, on Heterodera and Globodera [1]: had an effect | Lethal Dose 50: LD50 [3]: > 3000 mg/kg | Lethal Concentration 50: LC50 [4]: 5.1 mg·L | partition coefficient: n-octanol/water, log Pow [5]: 1.32
